Results on 7 molecules are retold here after patent publication US20240398805A1, “QUINAZOLINE DERIVED COMPOUNDS AS EGFR INHIBITORS AND THEIR USES THEREOF” (ACCUTAR BIOTECHNOLOGY INC., priority 2021, published 2024).

One may read the GI50 as the concentration at which growth is held to half of that of the control. A lower GI50 goes with greater sensitivity of the cells.

Common to all, as to type: cell-based
The test system of one assay is HCC827 cells. As to the kind of experiment: Cell growth inhibition (CellTiter-Glo, 3 days) in HCC827. The conditions noted are these: Homo sapiens, 72 h, 3 days after administration. The method, boiled down:
(§1)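 Growth inhibition was scored by CellTiter-Glo luminescence after 3-day compound exposure at various concentrations. Cells were plated at 5000/well the day before treatment: A431 in DMEM and HCC827 in RPMI, each with 10% FBS.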
A general note: In ATP-based viability assays light output follows the ATP content of the culture.

Assay [1] has as its system HCC827-SVD cells (human EGFR exon 20 insertion mutant D770_N771 insSVD). Description: Cell growth inhibition (CellTiter-Glo, 3 days) in HCC827-SVD. The conditions noted are these: 72 h, 3 days after administration. The method, boiled down: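 HCC827 cells carrying lentiviral codon-optimized EGFR D770_N771 insSVD, with endogenous EGFR knocked out by CRISPR (single clone), seeded at 5000 cells/well in RPMI with 10% FBS. Viability read by CellTiter-Glo luminescence.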

Assay [2] relates to HCC827-ASV cells (human EGFR exon 20 insertion mutant A769_D770insASV). Description: Cell growth inhibition (CellTiter-Glo, 3 days) in HCC827-ASV. Conditions: 72 h, 3 days after administration. The essentials: (§2)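 HCC827 cells lentivirally transduced with codon-optimized ASV or YVMA insertion mutants were seeded at 5000 cells/well in RPMI with 10% FBS and incubated overnight. Compound was added at various concentrations from a 10× stock in medium, with 3 days' incubation. Viability read by CellTiter-Glo luminescence.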

Assay [3] relates to HCC827-YVMA cells (human ERBB2 exon20 insertion mutant A775_G776ins YVMA). Description: Cell growth inhibition (CellTiter-Glo, 3 days) in HCC827-YVMA. Conditions: 72 h, 3 days after administration. The essentials: as §2
In the next assay the test system is A431 cells. As to the kind of experiment: Cell growth inhibition (CellTiter-Glo, 3 days) in A431. Conditions: Homo sapiens, A-431, 72 h, 3 days after administration. The method, boiled down:
as §1

As to `C=CC(=O)N1CCC(Oc2cc3c(Nc4ccc(Oc5ccnc(N6C[C@@H](C)N(C)[C@@H](C)C6)c5)cc4F)ncnc3cc2OC)CC1` [Example 156, 1-(4-((4-((2-fluoro-4-((2-((3R,5S)-3,4,5-trimethylpiperazin-1-yl)pyridin-4-yl)oxy)phenyl)amino)-7-methoxyquinazolin-6-yl)oxy)piperidin-1-yl)prop-2-en-1-one], the GI50 is at least 1 µM in the assay with HCC827 cells; 0.1 to 0.3 µM in assay [1]; 0.1 to 0.3 µM in assay [2]; 0.1 to 0.3 µM in assay [3]; at least 1 µM with A431 cells.
Consider `C=CC(=O)N1CCC(Nc2cc3c(Nc4ccc(Oc5ccnc(N6CC[C@H](O)[C@H](F)C6)c5)cc4F)ncnc3cc2OC)CC1` [Example 170, 1-(4-((4-((2-fluoro-4-((2-((3R,4S)-3-fluoro-4-hydroxypiperidin-1-yl)pyridin-4-yl)oxy)phenyl)amino)-7-methoxyquinazolin-6-yl)amino)piperidin-1-yl)prop-2-en-1-one], for which the GI50 with HCC827 cells is 0.6 to 1 µM; in assay [1], 0.06 to 0.1 µM; in assay [2] it was 0.06 to 0.1 µM; in assay [3] it was 0.1 to 0.3 µM; in the assay with A431 cells, at least 1 µM.
In the case of `C=CC(=O)N1CCC(Nc2cc3c(Nc4ccc(Oc5ccnc(N6CCC(N)CC6)c5)cc4F)ncnc3cc2OC)CC1` [Example 178, 1-(4-((4-((4-((2-(4-aminopiperidin-1-yl)pyridin-4-yl)oxy)-2-fluorophenyl)amino)-7-methoxyquinazolin-6-yl)amino)piperidin-1-yl)prop-2-en-1-one], the GI50 in the assay on HCC827 cells is at least 1 µM; in assay [1] it was 0.3 to 0.6 µM; in assay [2], 0.3 to 0.6 µM; in assay [3], 0.3 to 0.6 µM; with A431 cells it was at least 1 µM.
For `C=CC(=O)N1CCC(Nc2cc3c(Nc4cc(Cl)c(Oc5ccn(-c6cnc(C)c(F)c6)n5)cc4F)ncnc3cc2OC)CC1` [Example 19, 1-(4-((4-((5-chloro-2-fluoro-4-((1-(5-fluoro-6-methylpyridin-3-yl)-1H-pyrazol-3-yl)oxy)phenyl)amino)-7-methoxyquinazolin-6-yl)amino)piperidin-1-yl)prop-2-en-1-one], the GI50 with HCC827 cells was below 0.03 µM; in assay [1], 0.03 to 0.06 µM; in assay [2], 0.03 to 0.06 µM; in assay [3], 0.06 to 0.1 µM; in the assay on A431 cells, 0.1 to 0.3 µM.
Turning to `C=CC(=O)N1CCC(Nc2cc3c(Nc4ccc(Oc5ccnc(C(=O)OC)c5)cc4F)ncnc3cc2OC)CC1` [Example 211, methyl 4-(4-((6-((1-acryloylpiperidin-4-yl)amino)-7-methoxyquinazolin-4-yl)amino)-3-fluorophenoxy) picolinate], the GI50 in the assay on HCC827 cells was at least 1 µM; in assay [1], at least 1 µM; in assay [2], at least 1 µM; in assay [3], 0.6 to 1 µM; in the assay on A431 cells, at least 1 µM.
As for `C=CC(=O)N1CCC(Nc2cc3c(Nc4ccc(Oc5ccnc(-c6nc(C)no6)c5)cc4F)ncnc3cc2OC)CC1` [Compound 191, 1-(4-((4-((2-fluoro-4-((2-(3-methyl-1,2,4-oxadiazol-5-yl)pyridin-4-yl)oxy)phenyl)amino)-7-methoxyquinazolin-6-yl)amino)piperidin-1-yl)prop-2-en-1-one], the GI50 was 0.03 to 0.06 µM with HCC827 cells; below 0.03 µM in assay [1]; below 0.03 µM in assay [2]; below 0.03 µM in assay [3]; 0.3 to 0.6 µM in the assay on A431 cells.
`C=CC(=O)N1CCC(Nc2cc3c(Nc4ccc(Oc5ccnc(N6CCC(C)(O)C6)c5)cc4F)ncnc3cc2OC)CC1` (centres unmarked) [Example 149, 1-(4-((4-((2-fluoro-4-((2-(3-hydroxy-3-methylpyrrolidin-1-yl)pyridin-4-yl)oxy)phenyl)amino)-7-methoxyquinazolin-6-yl)amino)piperidin-1-yl)prop-2-en-1-one]: the GI50 in the assay with HCC827 cells is 0.1 to 0.3 µM; in assay [1] it was 0.03 to 0.06 µM; in assay [2] it was 0.03 to 0.06 µM; in assay [3] it was 0.06 to 0.1 µM; in the assay with A431 cells, 0.1 to 0.3 µM.
